Our source for the TD50 and carcinogen call values is PubChem BioAssay AID1745844 (Carcinogenic Potency Database (CPDB), 2022).

Active and inactive are the calls of the source. No rule for the calls is given here.

The test system of the series is rodent lifetime carcinogenesis bioassay, tumor incidence TD50. As to the kind of experiment: chronic cancer bioassays in animals – CPDB, compiled studies (AID 1745844).

For the compound `C/C=C(/C)C(=O)O[C@H]1CCN2CC=C(COC(=O)[C@@](O)([C@H](C)OC)C(C)(C)O)[C@H]12`, the TD50 (commonly the 50% point of the dose-response relation for the toxic effect studied) (rat, strain Fischer 344, females, in feed, site: any site (literature study), lesion: several types, types named in the paper, dosed 92 weeks, study length 104 weeks) amounted to 0.102 mg/kg/day; the TD50 (rat, strain Fischer 344, females, in feed, site: liver + multiple organs, lesion: adenoma, NOS + angiosarcoma + hepatocellular carcinoma + granulocytic leukemia + leukemia + lymphocytic leukemia + lymphoma + undiffer, dosed 92 weeks, study length 104 weeks) worked out at 0.141 mg/kg/day; the TD50 (rat, strain Fischer 344, females, in feed, site: liver, lesion: adenoma, NOS + hepatocellular carcinoma, dosed 92 weeks, study length 104 weeks) is 0.453 mg/kg/day; the TD50 (rat, strain Fischer 344, females, in feed, site: liver, lesion: angiosarcoma, dosed 92 weeks, study length 104 weeks) was 0.355 mg/kg/day; the TD50 (rat, strain Fischer 344, females, in feed, site: liver, lesion: hepatocellular adenoma + hepatocellular carcinoma + neoplastic nodule, dosed 92 weeks, study length 104 weeks) amounted to 22.7 mg/kg/day; the TD50 (rat, strain Fischer 344, females, in feed, site: multiple organs, lesion: granulocytic leukemia + lymphocytic leukemia + undifferentiated leukemia, dosed 92 weeks, study length 104 weeks) was 0.387 mg/kg/day. The TD50 runs as follows: (rat, strain Fischer 344, females, in feed, site: multiple organs, lesion: leukemia + lymphoma, dosed 92 weeks, study length 104 weeks) 0.325 mg/kg/day; (rat, strain Fischer 344, males, i.p., site: any site (literature study), lesion: several types, types named in the paper, dosed 56 weeks, study length 76 weeks) 0.152 mg/kg/day; (rat, strain Fischer 344, males, i.p., site: liver, lesion: hepatocellular carcinoma, dosed 56 weeks, study length 76 weeks) 0.397 mg/kg/day; (rat, strain Fischer 344, males, i.p., site: liver, lesion: several types, types named in the paper, dosed 56 weeks, study length 76 weeks) 0.341 mg/kg/day; (rat, strain Fischer 344, males, i.p., site: lung, lesion: adenoma, dosed 56 weeks, study length 76 weeks) 1.33 mg/kg/day; (rat, strain Fischer 344, males, i.p., site: skin, lesion: squamous-cell carcinoma, dosed 56 weeks, study length 76 weeks) 0.794 mg/kg/day. For the same compound, the TD50 (rat, strain Fischer 344, males, i.p., site: small intestine, lesion: adenocarcinoma, dosed 56 weeks, study length 76 weeks) was 2.73 mg/kg/day; the TD50 (rat, strain Fischer 344, males, in feed, site: all sites, lesion: leukemia + lymphoma, dosed 98 weeks, study length 104 weeks) was 0.514 mg/kg/day; the TD50 (rat, strain Fischer 344, males, in feed, site: any site (literature study), lesion: several types, types named in the paper, dosed 55 weeks, study length 59 weeks) was found to be 0.217 mg/kg/day; the TD50 (rat, strain Fischer 344, males, in feed, site: any site (literature study), lesion: several types, types named in the paper, dosed 98 weeks, study length 104 weeks) turned out to be 0.152 mg/kg/day; the TD50 (rat, strain Fischer 344, males, in feed, site: liver, lesion: adenoma, NOS + angiosarcoma + hepatocellular carcinoma, dosed 98 weeks, study length 104 weeks) worked out at 0.25 mg/kg/day; the TD50 (rat, strain Fischer 344, males, in feed, site: liver, lesion: adenoma, NOS + hepatocellular carcinoma, dosed 98 weeks, study length 104 weeks) is 0.908 mg/kg/day. Also, the TD50 was 0.688 mg/kg/day (rat, strain Fischer 344, males, in feed, site: liver, lesion: angiosarcoma, dosed 55 weeks, study length 59 weeks); 0.355 mg/kg/day (rat, strain Fischer 344, males, in feed, site: liver, lesion: angiosarcoma, dosed 98 weeks, study length 104 weeks); 0.954 mg/kg/day (rat, strain Fischer 344, males, in feed, site: liver, lesion: carcinoma, dosed 55 weeks, study length 59 weeks); 7.43 mg/kg/day (rat, strain Fischer 344, males, in feed, site: liver, lesion: hepatocellular adenoma + hepatocellular carcinoma + neoplastic nodule, dosed 98 weeks, study length 104 weeks).
In the case of `C[C@]12C=CC(=O)C=C1CC[C@@H]1[C@@H]2[C@@H](O)C[C@@]2(C)[C@H]1CC[C@]2(O)C(=O)COC(=O)CCCc1ccc(N(CCCl)CCCl)cc1`, the TD50 was 14 mg/kg/day (inactive) (rat, strain Sprague-Dawley, females, by gavage, site: any site (literature study), lesion: benign tumor, dosed 78 weeks, study length 104 weeks); 21.6 mg/kg/day (inactive) (rat, strain Sprague-Dawley, females, by gavage, site: any site (literature study), lesion: malignant tumor, dosed 78 weeks, study length 104 weeks); 19.2 mg/kg/day (rat, strain Sprague-Dawley, females, by gavage, site: external auditory canal, lesion: squamous-cell carcinoma, dosed 78 weeks, study length 104 weeks).
As to `Nc1nc(N)nc(-c2ccccc2)n1`, the TD50 reads like this: (mouse, strain CD-1 HaM/ICR, females, in feed, site: any site (literature study), lesion: several types, types named in the paper, dosed 77 weeks, study length 94 weeks) 932 mg/kg/day (inactive); (mouse, strain CD-1 HaM/ICR, females, in feed, site: liver, lesion: several types, types named in the paper, dosed 77 weeks, study length 94 weeks) 2040 mg/kg/day (inactive); (mouse, strain CD-1 HaM/ICR, females, in feed, site: lung, lesion: several types, types named in the paper, dosed 77 weeks, study length 94 weeks) 9340 mg/kg/day (inactive); (mouse, strain CD-1 HaM/ICR, males, in feed, site: any site (literature study), lesion: several types, types named in the paper, dosed 73 weeks, study length 94 weeks) 439 mg/kg/day (inactive); (mouse, strain CD-1 HaM/ICR, males, in feed, site: liver, lesion: several types, types named in the paper, dosed 73 weeks, study length 94 weeks) 3200 mg/kg/day (inactive); (mouse, strain CD-1 HaM/ICR, males, in feed, site: lung, lesion: several types, types named in the paper, dosed 73 weeks, study length 94 weeks) 304 mg/kg/day (inactive). The TD50 (rat, strain Charles River CD (Sprague-Dawley), males, in feed, site: any site (literature study), lesion: several types, types named in the paper, dosed 77 weeks, study length 94 weeks) is 16.3 mg/kg/day (inactive). Moreover, the carcinogen call (rat, strain Charles River CD (Sprague-Dawley), males, in feed, site: liver, lesion: several types, types named in the paper, dosed 77 weeks, study length 94 weeks) was “negative (inactive)”.
In the case of `Clc1cc(Cl)cc(-c2cc(Cl)cc(Cl)c2)c1`, the carcinogen call (rat, strain Donryu, females, in feed, site: liver, lesion: one or several types, types not named, dosed 26 weeks, study length 84 weeks) was “negative (inactive)”.
On to `C[C@H]1CCCCN1N=O`, for which the TD50 is 13.2 mg/kg/day (rat, strain Sprague-Dawley, both sexes, in drinking water, site: any site (literature study), lesion: malignant tumor, dosed 104 weeks, study length 104 weeks); 61.2 mg/kg/day (rat, strain Sprague-Dawley, both sexes, in drinking water, site: liver, lesion: liver-cell carcinoma, dosed 104 weeks, study length 104 weeks); 49.4 mg/kg/day (rat, strain Sprague-Dawley, both sexes, in drinking water, site: liver, lesion: several types, types named in the paper, dosed 104 weeks, study length 104 weeks); 34.5 mg/kg/day (rat, strain Sprague-Dawley, both sexes, in drinking water, site: several sites, sites named in the paper, lesion: ependymoblastoma, dosed 104 weeks, study length 104 weeks).
As for `Cc1c(N(C)CS(=O)(=O)O)c(=O)n(-c2ccccc2)n1C`, the TD50 is 7120 mg/kg/day (mouse, strain B6C3F1, females, in drinking water, site: liver, lesion: hepatocellular carcinoma, dosed 75 weeks, study length 86 weeks); 742 mg/kg/day (mouse, strain B6C3F1, females, in drinking water, site: liver, lesion: several types, types named in the paper, dosed 75 weeks, study length 86 weeks); 547 mg/kg/day (mouse, strain B6C3F1, males, in drinking water, site: liver, lesion: several types, types named in the paper, dosed 77 weeks, study length 86 weeks); 400 mg/kg/day (rat, strain F344/DuCrj, males, in drinking water, site: liver, lesion: neoplastic nodule, dosed 72 weeks, study length 83 weeks); 33100 mg/kg/day (inactive) (rat, strain Wistar, females, in feed, site: liver, lesion: adenoma, dosed 104 weeks, study length 130 weeks); 41400 mg/kg/day (inactive) (rat, strain Wistar, females, in feed, site: liver, lesion: angiosarcoma, dosed 104 weeks, study length 130 weeks). The TD50 is 8330 mg/kg/day (inactive) (rat, strain Wistar, females, in feed, site: liver, lesion: liver-cell carcinoma, dosed 104 weeks, study length 130 weeks); 328 mg/kg/day (inactive) (rat, strain Wistar, females, in feed, site: mammary gland, lesion: adenoma, dosed 104 weeks, study length 130 weeks); 3340 mg/kg/day (inactive) (rat, strain Wistar, males, in feed, site: liver, lesion: adenoma, dosed 104 weeks, study length 130 weeks). The carcinogen call (rat, strain Wistar, males, in feed, site: liver, lesion: anaplastic carcinoma, dosed 104 weeks, study length 130 weeks) is “negative (inactive)”.
In the case of `CC(O)CN(CC(C)O)N=O` (stereo unspecified), the TD50 reads like this: (rat, strain Fischer 344, females, in drinking water, site: esophagus, lesion: carcinoma, dosed 42 weeks, study length 55 weeks) 1.25 mg/kg/day; (rat, strain Fischer 344, females, in drinking water, site: esophagus, lesion: several types, types named in the paper, dosed 42 weeks, study length 55 weeks) 0.813 mg/kg/day; (rat, strain Fischer 344, females, in drinking water, site: nasal cavity, lesion: olfactory carcinoma, dosed 42 weeks, study length 55 weeks) 3.04 mg/kg/day; (rat, strain MRC-Wistar, males, by gavage, site: prostate, lesion: carcinoma, dosed 74 weeks, study length 74 weeks) 437 mg/kg/day; (rat, strain Wistar, males, in drinking water, site: liver, lesion: hemangioma, dosed 45 weeks, study length 52 weeks) 4.55 mg/kg/day; (rat, strain Wistar, males, in drinking water, site: liver, lesion: hepatocellular carcinoma, dosed 45 weeks, study length 52 weeks) 2.4 mg/kg/day. Moreover, the TD50 runs as follows: (rat, strain Wistar, males, in drinking water, site: lung, lesion: adenocarcinoma, dosed 45 weeks, study length 52 weeks) 3.36 mg/kg/day; (rat, strain Wistar, males, in drinking water, site: lung, lesion: adenoma, dosed 45 weeks, study length 52 weeks) 0.881 mg/kg/day; (rat, strain Wistar, males, in drinking water, site: lung, lesion: carcinoma, combined glandular and squamous type, dosed 45 weeks, study length 52 weeks) 9.48 mg/kg/day.
For the compound `Clc1ccc(-c2ccc(Cl)c(Cl)c2Cl)c(Cl)c1Cl`, the TD50 is, setting by setting: (rat, strain Sherman COBS, females, in feed, site: liver, lesion: hepatocellular carcinoma, dosed 89 weeks, study length 95 weeks) 18.3 mg/kg/day; (rat, strain Sherman COBS, females, in feed, site: liver, lesion: neoplastic nodule, dosed 89 weeks, study length 95 weeks) 1.76 mg/kg/day; (rat, strain Sherman COBS, females, in feed, site: liver, lesion: several types, types named in the paper, dosed 89 weeks, study length 95 weeks) 1.04 mg/kg/day; (rat, strain Sprague-Dawley, females, in feed, site: liver, lesion: cholangioma, dosed 104 weeks, study length 104 weeks) 98.2 mg/kg/day; (rat, strain Sprague-Dawley, females, in feed, site: liver, lesion: hepatocellular adenoma, dosed 104 weeks, study length 104 weeks) 6.43 mg/kg/day; (rat, strain Sprague-Dawley, females, in feed, site: liver, lesion: hepatocellular carcinoma, dosed 104 weeks, study length 104 weeks) 41.4 mg/kg/day. The TD50 was 5.51 mg/kg/day (rat, strain Sprague-Dawley, females, in feed, site: liver, lesion: several types, types named in the paper, dosed 104 weeks, study length 104 weeks); 24.8 mg/kg/day (rat, strain Sprague-Dawley, males, in feed, site: liver, lesion: hepatocellular adenoma, dosed 104 weeks, study length 104 weeks); 121 mg/kg/day (rat, strain Sprague-Dawley, males, in feed, site: liver, lesion: hepatocellular carcinoma, dosed 104 weeks, study length 104 weeks); 20 mg/kg/day (rat, strain Sprague-Dawley, males, in feed, site: liver, lesion: several types, types named in the paper, dosed 104 weeks, study length 104 weeks); 11.4 mg/kg/day (rat, strain Sprague-Dawley, males, in feed, site: thyroid gland, lesion: follicular-cell adenoma, dosed 104 weeks, study length 104 weeks); 232 mg/kg/day (rat, strain Sprague-Dawley, males, in feed, site: thyroid gland, lesion: follicular-cell carcinoma, dosed 104 weeks, study length 104 weeks). In addition, the TD50 by setting is: (rat, strain Sprague-Dawley, males, in feed, site: thyroid gland, lesion: several types, types named in the paper, dosed 104 weeks, study length 104 weeks) 10.3 mg/kg/day; (rat, strain Wistar, males, in feed, site: liver, lesion: hepatocellular carcinoma, dosed 116 weeks, study length 116 weeks) 5.39 mg/kg/day.
